Results taken from the NIST ThermoML archive (doi:10.1016/j.jct.2016.09.007).
Numbers after ± are expanded uncertainties.

Experiments:
[1] = xn = mol fraction of the nth substance listed; details: 93.2 kPa, Liquid, x2 = 0; for speed of sound: Frequency=3 MHz, Sing-around technique in a fixed-path interferometer; for mass density: Vibrating tube method
[2] = 93.2 kPa, Liquid; for speed of sound: Frequency=3 MHz, Sing-around technique in a fixed-path interferometer; for mass density: Vibrating tube method

SMILES | speed of sound ([1]; 293.15 K) [m/s] | mass density ([1]; 293.15 K) [kg/m3] | speed of sound ([1]; 298.15 K) [m/s] | mass density ([1]; 298.15 K) [kg/m3] | speed of sound ([1]; 303.15 K) [m/s] | mass density ([1]; 303.15 K) [kg/m3] | speed of sound ([1]; 308.15 K) [m/s] | mass density ([1]; 308.15 K) [kg/m3] | speed of sound ([1]; 313.15 K) [m/s] | mass density ([1]; 313.15 K) [kg/m3] | speed of sound ([2]; 293.15 K) [m/s] | mass density ([2]; 293.15 K) [kg/m3] | speed of sound ([2]; 298.15 K) [m/s] | mass density ([2]; 298.15 K) [kg/m3] | speed of sound ([2]; 303.15 K) [m/s] | mass density ([2]; 303.15 K) [kg/m3] | speed of sound ([2]; 308.15 K) [m/s] | mass density ([2]; 308.15 K) [kg/m3] | speed of sound ([2]; 313.15 K) [m/s] | mass density ([2]; 313.15 K) [kg/m3]
CCO [ethanol] + CCCC(=O)[O-].CCCC[NH3+] | 1161 ± 5.2 | 789.657 ± 4 | 1143.8 ± 5.2 | 785.366 ± 4 | 1126.8 ± 5.2 | 781.043 ± 4 | 1109.9 ± 5.2 | 776.696 ± 4 | 1093.1 ± 5.2 | 772.313 ± 4 | – | – | – | – | – | – | – | – | – | –
CO [methanol] | – | – | – | – | – | – | – | – | – | – | 1119.1 ± 5.2 | 791.347 ± 4 | 1102.5 ± 5.2 | 786.636 ± 4 | 1086 ± 5.2 | 781.907 ± 4 | 1069.7 ± 5.2 | 777.156 ± 4 | 1053.6 ± 5.2 | 772.385 ± 4
CCCO [propan-1-ol] | – | – | – | – | – | – | – | – | – | – | 1223.1 ± 5.3 | 803.625 ± 4 | 1205.8 ± 5.3 | 799.62 ± 4 | 1188.6 ± 5.3 | 795.582 ± 4 | 1171.6 ± 5.3 | 791.511 ± 4 | 1154.9 ± 5.3 | 787.407 ± 4
CCCCCO [pentan-1-ol] + CCCC(=O)[O-].CCCC[NH3+] | 1292.8 ± 5.3 | 814.807 ± 4 | 1275.7 ± 5.3 | 811.144 ± 4 | 1258.8 ± 5.3 | 807.455 ± 4 | 1242.1 ± 5.3 | 803.736 ± 4 | 1225.5 ± 5.3 | 799.99 ± 4 | – | – | – | – | – | – | – | – | – | –
CO [methanol] + CCCC(=O)[O-].CCCC[NH3+] | 1119.1 ± 5.2 | 791.347 ± 4 | 1102.5 ± 5.2 | 786.636 ± 4 | 1086 ± 5.2 | 781.907 ± 4 | 1069.7 ± 5.2 | 777.156 ± 4 | 1053.6 ± 5.2 | 772.385 ± 4 | – | – | – | – | – | – | – | – | – | –
CCO [ethanol] | – | – | – | – | – | – | – | – | – | – | 1161 ± 5.2 | 789.657 ± 4 | 1143.8 ± 5.2 | 785.366 ± 4 | 1126.8 ± 5.2 | 781.043 ± 4 | 1109.9 ± 5.2 | 776.696 ± 4 | 1093.1 ± 5.2 | 772.313 ± 4
CCCO [propan-1-ol] + CCCC(=O)[O-].CCCC[NH3+] | 1223.1 ± 5.3 | 803.625 ± 4 | 1205.8 ± 5.3 | 799.62 ± 4 | 1188.6 ± 5.3 | 795.582 ± 4 | 1171.6 ± 5.3 | 791.511 ± 4 | 1154.9 ± 5.3 | 787.407 ± 4 | – | – | – | – | – | – | – | – | – | –
CCCCO [butan-1-ol] | – | – | – | – | – | – | – | – | – | – | 1256.8 ± 5.3 | 809.523 ± 4 | 1239.7 ± 5.3 | 805.71 ± 4 | 1222.8 ± 5.3 | 801.872 ± 4 | 1206.1 ± 5.3 | 798.004 ± 4 | 1189.5 ± 5.2 | 794.103 ± 4
CCCCCO [pentan-1-ol] | – | – | – | – | – | – | – | – | – | – | 1292.8 ± 5.3 | 814.807 ± 4 | 1275.7 ± 5.3 | 811.144 ± 4 | 1258.8 ± 5.3 | 807.455 ± 4 | 1242.1 ± 5.3 | 803.736 ± 4 | 1225.5 ± 5.3 | 799.99 ± 4
CCCC(=O)[O-].CCCC[NH3+] [n-butylammonium butanoate] | – | – | – | – | – | – | – | – | – | – | 1431.5 ± 5.3 | 928.794 ± 4 | 1410.3 ± 5.3 | 925.509 ± 4 | 1390.4 ± 5.3 | 922.217 ± 4 | 1371.5 ± 5.3 | 918.88 ± 4 | 1353.6 ± 5.3 | 915.567 ± 4
CCCCO [butan-1-ol] + CCCC(=O)[O-].CCCC[NH3+] | 1256.8 ± 5.3 | 809.523 ± 4 | 1239.7 ± 5.3 | 805.71 ± 4 | 1222.8 ± 5.3 | 801.872 ± 4 | 1206.1 ± 5.3 | 798.004 ± 4 | 1189.5 ± 5.2 | 794.103 ± 4 | – | – | – | – | – | – | – | – | – | –
